Reference: patent US20240262803A1, “COMPOUNDS, COMPOSITIONS AND METHODS OF TREATING DISORDERS” (Chungdu Anticancer Bioscience Ltd, priority 2021, published 2024)
Like-named read-outs stand apart in the source and are kept apart here.

Tests used:
Format in all cases: cell-based
[1] = tested on: colon cancer cell line HCT116; experiment: MTT assay of cellular proliferation, HCT116; settings: Homo sapiens, HCT-116, read-out: EC50: Concentration that inhibits 50% of proliferation
Description: (§1) Six lung cancer cell lines (NCI-H23, NCI-H460, NCI-H596, NCI-H2170, Calu-6 and A549), two colon cancer cell lines (HCT116 and SW460), one breast cancer cell line MDA-MB-231, one gastric cancer cell line NCI-N87, one prostate cancer cell line DU145, one cervical cancer cell line Hela, and one glioblastoma cell line T98G were obtained from ATCC. The T2 HCC cell line was derived from a mouse liver cancer model initiated by a transgene of MYC (Reference). All cell lines were cultured in DMEM (Gibco, Cleveland, TN, USA) supplemented with 5% fetal bovine serum (Gibco), penicillin (100 U/mL)-streptomycin (100 μg/mL) (Gibco, Cat. No. 15140-122), 2 mM L-glutamine (Gibco, 200 mM solution, Cat. No. 25030081), and 1 mM sodium pyruvate (Gibco, 100 mM solution, Cat. No. 11360070) at 37° C. in a humidified incubator that was maintained at 5% CO2.
(§2) The MTT assay measures cellular metabolic activity as a proxy for cell viability and involves the conversion of the water-soluble yellow dye MTT [3-(4,5-dimethylthiazol-2-yl)-2,5-diphenyltetrazolium bromide] into an insoluble purple formazan by the action of mitochondrial reductase. Formazan is then solubilized and its concentration is determined by measuring the optical density (OD) value at a wavelength of 570 nm. The value is in proportional to the number of live cells with excellent linearity up to ˜10^6 cells per well. The MTT assay was used to determine the EC50 value, the concentration of a compound that leads to 50% inhibition of cellular proliferation. Briefly, cells were split when growing to the mid-Log phase. Cells in 100 μL of culture medium were seeded into each well of 96-well microplates and cultivated for 15˜24 hours to reach a confluence of 20˜30% and were then exposed to drugs at concentrations ranging from 1 nM to 10 μM. At the endpoint, 20 μL of a MTT stock solution in DMSO (5 mg/mL) was added to each well that contains […] of DMEM. The microplates were left in the cell culture incubator for 3˜4 h before subjected to solubilization and determination of formazan at A570 in a microplate reader (BioTek ELX808iu). […] Therefore, these compounds might hold a broad utility in the treatment of a large variety of human malignancies.

[2] = tested on: SW480; experiment: Minimal effective concentration that elicits polyploidy, SW480; settings: Homo sapiens, read-out: MECP: Minimal effective concentration that elicits polyploidy
[3] = tested on: breast cancer cell line MDA-MB-231; experiment: Minimal effective concentration that elicits polyploidy, MDA-MB-231; settings: Homo sapiens, read-out: MECP: Minimal effective concentration that elicits polyploidy
[4] = tested on: RPEMYC^H2B-GFP cells; experiment: Mechanism-informed phenotypic screening assay (mitotic arrest, polyploidy; GE IN-Cell Analyzer 2000); settings: 20 nM to 20 μM, 24, 48 or 72 hours, read-out: Mitotic Arrest (≥5%)
[5] = tested on: lung cancer cell line NCI-H23; experiment: MTT assay of cellular proliferation, NCI-H23; settings: Homo sapiens, read-out: EC50: Concentration that inhibits 50% of proliferation
Description: as §1, §2

[6] = tested on: breast cancer cell line MDA-MB-231; experiment: MTT assay of cellular proliferation, MDA-MB-231; settings: Homo sapiens, read-out: EC50: Concentration that inhibits 50% of proliferation
Description: as §1, §2

[7] = tested on: RPEMYC^H2B-GFP cells; experiment: Mechanism-informed phenotypic screening assay (mitotic arrest, polyploidy; GE IN-Cell Analyzer 2000); settings: 20 nM to 20 μM, 24, 48 or 72 hours, read-out: Min. Effective conc. for polyploidy (≥5%)
Summary of the method: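 RPEMYC^H2B-GFP cells expressing Histone 2B-EGFP were treated with compounds at 20 nM to 20 μM. Mitotic arrest and DNA content were imaged at 24, 48 or 72 h. Minimal effective concentrations eliciting polyploidy are given as letter bins.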

[8] = tested on: liver cancer cell line T2 HCC; experiment: Minimal effective concentration that elicits polyploidy, T2 HCC; settings: Mus musculus, read-out: MECP: Minimal effective concentration that elicits polyploidy
[9] = tested on: colon cancer cell line HCT116; experiment: Minimal effective concentration that elicits polyploidy, HCT116; settings: Homo sapiens, HCT-116, read-out: MECP: Minimal effective concentration that elicits polyploidy
[10] = tested on: lung cancer cell line A549; experiment: Minimal effective concentration that elicits polyploidy, A549; settings: Homo sapiens, read-out: MECP: Minimal effective concentration that elicits polyploidy
[11] = tested on: lung cancer cell line A549; experiment: MTT assay of cellular proliferation, A549; settings: Homo sapiens, read-out: EC50: Concentration that inhibits 50% of proliferation
Description: as §1, §2

[12] = tested on: lung cancer cell line NCI-H23; experiment: Minimal effective concentration that elicits polyploidy, NCI-H23; settings: Homo sapiens, read-out: MECP: Minimal effective concentration that elicits polyploidy
[13] = tested on: liver cancer cell line T2 HCC; experiment: MTT assay of cellular proliferation, T2 HCC; settings: Mus musculus, read-out: EC50: Concentration that inhibits 50% of proliferation
Description: as §1, §2

[14] = tested on: colon cancer cell line SW460; experiment: MTT assay of cellular proliferation, SW460; settings: Homo sapiens, SW480; read-out: EC50: Concentration that inhibits 50% of proliferation
Description: as §1, §2

[15] = tested on: gastric cancer cell line NCI-N87; experiment: Minimal effective concentration that elicits polyploidy, NCI-N87; settings: Homo sapiens, read-out: MECP: Minimal effective concentration that elicits polyploidy
[16] = tested on: cervical cancer cell line Hela; experiment: MTT assay of cellular proliferation, Hela; settings: Homo sapiens, read-out: EC50: Concentration that inhibits 50% of proliferation
Description: as §1, §2

[17] = tested on: cervical cancer cell line Hela; experiment: Minimal effective concentration that elicits polyploidy, Hela; settings: Homo sapiens, read-out: MECP: Minimal effective concentration that elicits polyploidy
[18] = tested on: gastric cancer cell line NCI-N87; experiment: MTT assay of cellular proliferation, NCI-N87; settings: Homo sapiens, read-out: EC50: Concentration that inhibits 50% of proliferation
Description: as §1, §2

| SMILES | EC50 [1] | EC50 [5] | EC50 [6] | EC50 [11] | EC50 [13] | EC50 [14] | EC50 [16] | EC50 [18] | minimal effective concentration [2] | minimal effective concentration [3] | minimal effective concentration [4] | minimal effective concentration [7] | minimal effective concentration [8] | minimal effective concentration [9] | minimal effective concentration [10] | minimal effective concentration [12] | minimal effective concentration [15] | minimal effective concentration [17] |
| --- | --- | --- | --- | --- | --- | --- | --- | --- | --- | --- | --- | --- | --- | --- | --- | --- | --- | --- |
| COc1cc(Oc2ncccc2-c2ccnc(N)n2)cc(-n2cccn2)c1 [Compound 26, 4-(2-(3-methoxy-5-(1H-pyrazol-1-yl)phenoxy)pyridin-3-yl)pyrimidin-2-amine] | 1 to 1000 nM | 1 to 1000 nM | 1 to 1000 nM | 1 to 1000 nM | 1 to 1000 nM | 1 to 1000 nM | 1 to 1000 nM | 1 to 1000 nM | 0.001 to 1 µM | 0.001 to 1 µM | 1 µM | 1 µM | 0.001 to 1 µM | 0.001 to 1 µM | 0.001 to 1 µM | 0.001 to 1 µM | 0.001 to 1 µM | 0.001 to 1 µM |
| CNC(=O)c1cc(OC)cc(Oc2ncccc2-c2ccnc(OC)c2)c1 [Compound 27, 3-methoxy-5-((2′-methoxy-[3,4′-bipyridin]-2-yl)oxy)-N-methylbenzamide] | 1 to 1000 nM | 1 to 1000 nM | 1 to 1000 nM | 1 to 1000 nM | 1 to 1000 nM | 1 to 1000 nM | 1 to 1000 nM | 1 to 1000 nM | 0.001 to 1 µM | 0.001 to 1 µM | 1 µM | 1 µM | 0.001 to 1 µM | 0.001 to 1 µM | 0.001 to 1 µM | 0.001 to 1 µM | 0.001 to 1 µM | 0.001 to 1 µM |
| CCOc1cc(Oc2ncccc2-c2ccnc(OC)c2)cc(C(=O)NC)c1 [Compound 28, 3-ethoxy-5-((2′-methoxy-[3,4′-bipyridin]-2-yl)oxy)-N-methylbenzamide] | 1 to 1000 nM | 1 to 1000 nM | 1 to 1000 nM | 1 to 1000 nM | 1 to 1000 nM | 1 to 1000 nM | 1 to 1000 nM | 1 to 1000 nM | 0.001 to 1 µM | 0.001 to 1 µM | 1 µM | 1 µM | 0.001 to 1 µM | 0.001 to 1 µM | 0.001 to 1 µM | 0.001 to 1 µM | 0.001 to 1 µM | 0.001 to 1 µM |
| COc1cc(NC(C)=O)cc(Oc2ncccc2-c2ccnc(OC)c2)c1 [Compound 34] | 1 to 1000 nM | 1 to 1000 nM | 1 to 1000 nM | 1 to 1000 nM | 1 to 1000 nM | 1 to 1000 nM | 1 to 1000 nM | 1 to 1000 nM | 0.001 to 1 µM | 0.001 to 1 µM | 1 µM | 1 µM | 0.001 to 1 µM | 0.001 to 1 µM | 0.001 to 1 µM | 0.001 to 1 µM | 0.001 to 1 µM | 0.001 to 1 µM |
| CNC(=O)c1cc(OC)cc(Oc2ncccc2-c2ccnc(C)c2)c1 [Compound 36, 3-methoxy-N-methyl-5-((2′-methyl-[3,4′-bipyridin]-2-yl)oxy)benzamide] | 1 to 1000 nM | 1 to 1000 nM | 1 to 1000 nM | 1 to 1000 nM | 1 to 1000 nM | 1 to 1000 nM | 1 to 1000 nM | 1 to 1000 nM | 0.001 to 1 µM | 0.001 to 1 µM | 1 µM | 1 µM | 0.001 to 1 µM | 0.001 to 1 µM | 0.001 to 1 µM | 0.001 to 1 µM | 0.001 to 1 µM | 0.001 to 1 µM |
| CNC(=O)c1cc(Oc2ncccc2-c2ccnc(C)c2)cc(C(F)(F)F)c1 [Compound 37, N-methyl-3-((2′-methyl-[3,4′-bipyridin]-2-yl)oxy)-5-(trifluoromethyl)benzamide] | 1 to 1000 nM | 1 to 1000 nM | 1 to 1000 nM | 1 to 1000 nM | 1 to 1000 nM | 1 to 1000 nM | 1 to 1000 nM | 1 to 1000 nM | 0.001 to 1 µM | 0.001 to 1 µM | 1 µM | 1 µM | 0.001 to 1 µM | 0.001 to 1 µM | 0.001 to 1 µM | 0.001 to 1 µM | 0.001 to 1 µM | 0.001 to 1 µM |

Further lines, with some results ahead:

| EC50 [1] | EC50 [5] | EC50 [6] | EC50 [11] | EC50 [13] | EC50 [14] | EC50 [16] | EC50 [18] | SMILES | minimal effective concentration [2] | minimal effective concentration [3] | minimal effective concentration [4] | minimal effective concentration [7] | minimal effective concentration [8] | minimal effective concentration [9] | minimal effective concentration [10] | minimal effective concentration [12] | minimal effective concentration [15] | minimal effective concentration [17] |
| --- | --- | --- | --- | --- | --- | --- | --- | --- | --- | --- | --- | --- | --- | --- | --- | --- | --- | --- |
| 1 to 1000 nM | 1 to 1000 nM | 1 to 1000 nM | 1 to 1000 nM | 1 to 1000 nM | 1 to 1000 nM | 1 to 1000 nM | 1 to 1000 nM | COc1cc(Oc2ncccc2-c2ccnc(OC)c2)cc(C(F)(F)F)c1 [Compound 30, 2′-methoxy-2-(3-methoxy-5-(trifluoromethyl)phenoxy)-3,4′-bipyridine] | 0.001 to 1 µM | 0.001 to 1 µM | 1 µM | 1 µM | 0.001 to 1 µM | 0.001 to 1 µM | 0.001 to 1 µM | 0.001 to 1 µM | 0.001 to 1 µM | 0.001 to 1 µM |
| 1 to 1000 nM | 1 to 1000 nM | 1 to 1000 nM | 1 to 1000 nM | 1 to 1000 nM | 1 to 1000 nM | 1 to 1000 nM | 1 to 1000 nM | COc1cc(Oc2ncccc2-c2ccnc(OC)c2)cc(-n2cccn2)c1 [Compound 31, 2′-methoxy-2-(3-methoxy-5-(1H-pyrazol-1-yl)phenoxy)-3,4′-bipyridine] | 0.001 to 1 µM | 0.001 to 1 µM | 1 µM | 1 µM | 0.001 to 1 µM | 0.001 to 1 µM | 0.001 to 1 µM | 0.001 to 1 µM | 0.001 to 1 µM | 0.001 to 1 µM |
| 1 to 1000 nM | 1 to 1000 nM | 1 to 1000 nM | 1 to 1000 nM | 1 to 1000 nM | 1 to 1000 nM | 1 to 1000 nM | 1 to 1000 nM | COc1cc(OC)cc(Oc2nccnc2-c2ccnc(OC)c2)c1 [Compound 35, 2-(3,5-dimethoxyphenoxy)-3-(2-methoxypyridin-4-yl)pyrazine] | 0.001 to 1 µM | 0.001 to 1 µM | 1 µM | 1 µM | 0.001 to 1 µM | 0.001 to 1 µM | 0.001 to 1 µM | 0.001 to 1 µM | 0.001 to 1 µM | 0.001 to 1 µM |
